Source: patent US20240118263A1, “TARGET FOR SCREENING ANTI-TUMOR DRUG, USE THEREOF AND SCREENING METHOD THEREFOR” (SHENYANG FUYANG PHARMACEUTICAL TECHNOLOGY CO., LTD., priority 2019, published 2024)

Key:
LN229 and U251 cells = assay: Cell cycle analysis by flow cytometry (EdU and DAPI), glioblastoma cells; type: cell-based; details: LN229 and U251, compared with control cells
Method: For monitoring cell-cycle arrest of ISP I-treated cells, Click-iT EdU Flow Cytometry Assay Kits were used, a product of ThermoFisher Scientific. Cells were co-cultured with EdU at a concentration of 10 μM for 1 hour. After fixation and permeabilization, EdU-positive cells were labeled with Alexa Fluor 647 fluorescein. DAPI also was used for measuring total DNA content to identify differences in cell cycle phases. Data were collected by means of a BD LSRFortessa flow cytometer using FlowJo software. Cells that are positive with EdU and DAPI were in S-Phase of the cell cycle.

SELH = SELH (Homo sapiens (Human), UniProt Q8IZQ5); assay: Drug affinity responsive target stability (DARTS) assay in LN229 cells; type: binding; details: LN229 lysate, ISP I 40 μg/mL, mass spectroscopy
Method: (2) To identify ISP I's molecular target, the inventors performed drug affinity responsive target stability (DARTS) assay in LN229 cells.
The inventors discovered that the binding of ISP I to its target proteins temporarily locks them into a stable conformational structure, which prevents their recognition by proteases. After evading protease degradation, the identity of ISP I's target proteins was determined using mass spectroscopy.
DARTS assay data were taken to identify the target of ISP I in vitro. For this assay, the invenots used the protocol published by Lomenick et al., Proc. Nat'l Acad. Sci. USA 106: 21984 (2009). Briefly, LN229 cells were lysed with M-PER (Pierce) supplemented with protease and phosphatase inhibitors. After centrifugation at 14,000 rpm for 15 min, lysates were diluted to the same final volume and protein concentration with M-PER and were dissolved in TNC buffer [50 mM Tris-HCl (pH 8.0), 50 mM NaCl, 10 mM CaCl2]. All steps were performed on ice or at 4° C. to help prevent premature protein degradation. […] Peptides were analyzed by LC/MS/MS on a Thermo LTQ-Orbitrap mass spectrometer with an Eksigent LC pump. For quantitative comparison of protein and peptide abundances, MS spectra were analyzed by means of the differential workflow of Rosetta Elucidator (Rosetta Inpharmatics).

SELH (Sec44→Cys44) = SELH (Sec44→Cys44) (Homo sapiens, UniProt Q8IZQ5, U44C); assay: SPR assay of ISP I with SELH synthesized in bacteria; type: binding
Excerpt: Next, the inventors used a thermo-stability assay to confirm SELH was targeted by ISP I in LN229 and 786-O cell lines. The principle of the assay is based on altered protein thermal stabilization/destabilization due to ligand binding in living cells. […] (FIG. 11B and FIG. 12A). To verify further the specificity of ISP I's targeting of SELH, the inventors designed a surface plasmon resonance assay to assess the interaction of ISP I with SELH synthesized in bacteria.
The affinities constant (KD) and kinetics (ka and kd) of ISP I binding to SELH (Sec44→Cys44) were assayed using Biacore 8K (GE Healthcare, Sweden), all at 25° C. […] Coupling conditions were determined by protein isoelectric points. […]
To determine the binding affinity between ISP I and SELH (Sec44→Cys44), a series of ISP I dilutions was analyzed by single-cycle kinetics. […] The ISP I at various gradient concentrations and one zero concentration (running buffer) flowed over the immobilized SELH, with 120 s for binding, followed by disassociation for 120 s, and the obtained response units (RUs) were recorded. The RU values were collected, and the binding affinity data were calculated by kinetic models (1:1 interaction) within Biacore 8K Evaluation Software. The equilibrium dissociation constant (KD) was calculated to evaluate the ability of ISP I to interact with SELH.

Sequence of SELH (Q8IZQ5 whole entry): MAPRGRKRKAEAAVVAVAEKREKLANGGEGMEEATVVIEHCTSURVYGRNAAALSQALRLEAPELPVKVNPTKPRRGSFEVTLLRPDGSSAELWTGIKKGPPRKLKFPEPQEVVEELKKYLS
Sequence of SELH (Sec44→Cys44) (Q8IZQ5 with tags, fused parts or gaps U44C): as the sequence (Q8IZQ5 whole entry) above, with U44C counted along it

SMILES: CO[C@@H]1[C@@H](O[C@@H]2O[C@H](C)[C@@H](O[C@H]3C[C@@](C)(O)[C@@H](OC(=O)CC(C)C)[C@H](C)O3)[C@H](N(C)C)[C@H]2O)[C@@H](CC=O)C[C@@H](C)[C@@H](O[C@H]2CC[C@H](N(C)C)[C@@H](C)O2)/C=C/C=C/C[C@@H](C)OC(=O)C[C@H]1O [Isovalerylspiramycin I, 4″-isovalerylspiramycin I]
- cell distribution in cell cycle phases (LN229 and U251 cells): dose-dependent increase in the G0/G1 phase and a decrease in the S phase
- target protein identified by DARTS (SELH): SELH was the most abundant primary protein
- binding to SELH versus other proteins (SELH (Sec44→Cys44)): tightly binds to SELH but does not bind with the other proteins
